Experimental data: US20030215391A1, “Fluorescent agents for real-time measurement of organ function” (priority 2003, published 2003)
Blank lines part the entries; values can stand above or below the compound they belong to.

Columns and labels:
[1] = (Bousquet, 1988); cited from earlier work
[2] = Solubility in aqueous media at physiological pH; type: physicochemical
From the text: where R may be furoic acid, nicotinic acid, picolinic acid, or some other substituted aromatic acid. The subsituted tetrazacyclododecane (STACD) is produced by reacting the amine groups with a brominated acid. 6-Bromo-picolinic acid, 5-bromo-nicotinic acid, and 5-bromo-furoic acid are all appropriate for prepararing a STACD. However, not all of these molecules are soluble in aqueous media at physiological pH. For example, while the tetrafuroic acid derivative is soluble in physiological fluids, the tetranicotinic acid derivative is not. The derivative should be combined with a solubility enhancer, for example, […], to form a salt which is soluble at pH 7. Other solubility enhancers may also be employed to modify the solubility of the STACD complex.
Magnetic Resonance Imaging Contrast Agent: The molecules of the invention, especially TABFTA, STACD, and their derivatives, can also be used as contrast agents for magnetic resonance imaging (MRI). When chelated with lanthanide ions such as gadolinium (Gd^3+) or […], the resulting paramagnetic compound enhances the relaxation of hydrogen protons, increasing signal intensities in MRI imaging (Bousquet, 1988). The increased signal increases the signal-to-noise ratio, reducing imaging time. In addition, the contrast agent may increase specificity in diagnosis. […]

[3] = (Aime, 1995); cited from earlier work
[4] = Fluorometric analysis (excitation and emission spectra); type: physicochemical; conditions: FIG. 4
Description: For the synthesis of a nile blue-DTPA conjugate, 0.1 g of DTPA dianhydride (ccDPTA) was dissolved in 6 ml of dimethyl sulfoxide (DMSO) in a round bottom flask. Ninety mg of nile blue were dissolved in DMSO and 36 μL of triethyl amine were added, turning the solution purple. The nile blue solution was added drop wise to the solution of ccDTPA while stirring. The solution turned blue. Thirty-eight μL of […] (TEA) were added to the final mixture, turning the solution purple. After mixing, the mixture was heated to 60° C. and stirred for 2 hours. The reaction mixture was then loaded onto a silica gel column and eluted with acetone:ethylacetate. The fractions corresponding to the nile blue-DTPA conjugate were pooled and evaporated, yielding a magenta colored oil. The oil was rechromatographed on a second silica gel column using acetone as eluant. The nile blue-DTPA conjugated fractions were pooled and rotate-evaporated to give a magenta colored oil. […]
The only group of chelating agents known to produce highly soluble and stable lanthanide chelates are the polyamino polyacetic acid analogs. […] The simplest initial approach was to study the fluorescence characteristics of the chelate between Eu and other already commercially available polyaminopoly bis (2-aminoethyl ether) acetic acids. […]

[5] = chelate with europium; previous studies (Hemmila, 1984); cited from earlier work

Compound: O=C([O-])CN1CCN(CC(=O)[O-])CCN(CC(=O)O)CCN(CC(=O)[O-])CC1.[Gd+3] [chelates of DOTA and gadolinium]
distribution after intravenous injection [1]: extracellular space distribution
excretion after intravenous injection [1]: excreted only by glomerular filtration

water solubility [2]: water-soluble
Compound: tetraazabycyclofurantetraacetate [TABFTA]

Compound: O=C(O)CN(CCN(CC(=O)O)CC(=O)O)CCN(CC(=O)O)CC(=O)O [DTPA, diethylenetriaminepentaacetic acid]
affinity constant (k) [3]: 23

emission fluorescence wavelength [4]: 695 nm
Compound: CC[N+](CC)=c1ccc2nc3c(cc(N)c4ccccc43)oc-2c1 [nile blue]

Compound: O=C(O)CN(CCN(CC(=O)O)CC(=O)O)CC(=O)O [EDTA]
fluorescence of the chelate [5]: essentially non-fluorescent
